According to patent publication US11306083B2, “Amide substituted imidazo[4,5-C]quinoline compounds with a branched chain linking group for use as an immune response modifier” (3M INNOVATIVE PROPERTIES COMPANY, priority 2017, dated 2022):

Tests used:
Assay type in all cases: cell-based
Conditions in all cases: 21-24 hrs, lowest concentration giving cytokine at least 2× negative control, tested 0.01-30 micromolar
[1] = tested on: IFN-gamma induction in human peripheral blood mononuclear cells (PBMC); assay: Cytokine induction in human cells (PBMC): IFN-gamma by multiplex bead assay
Experimental: (§1) Cytokine Induction in Human Cells
(§2) Whole blood was obtained from healthy human donors and collected by venipuncture into vacutainer tubes or syringes containing EDTA. Human peripheral blood mononuclear cells (PBMC) were purified from the whole blood by density gradient centrifugation. Histopaque 1077 (15 mL, Sigma, St. Louis, Mo.) was transferred to 6×50 mL sterile polypropylene conical tubes. The Histopaque was overlayed with 15-25 mL of blood diluted 1:2 in Hank's Balanced Salts Solution (HBSS) (Gibco, Life Technology, Grand Island N.Y.). The tubes were then centrifuged at 1370 rpm for 30 minutes at 20° C., with no brake (400×g, GH 3.8A Rotor).
(§3) The interface (buffy coat) containing the PBMC was collected and placed in a new sterile 50 mL conical polypropylene centrifuge tube. The PBMC were mixed with an equal volume of HBSS (about 20 mL from the interface and about 20 mL of HBSS), and then centrifuged at 1090 rpm, 10 min, 20° C., with brake (270×g, GH 3.8A Rotor). After completing centrifugation, the cells were resuspended in 2-3 mL ACK Red blood cell lysis buffer (ammonium chloride potassium solution, Gibco, Life Technology) and incubated for 2-5 minutes at 20° C. […]
(§4) The number of viable cells was determined by counting with a Miltenyi FACS instrument (Miltenyi Biotec Inc., San Diego, Calif.) or by using a hemacytometer. […] Ten microliters of the diluted cells were then applied to the hemacytometer, and the number of viable PBMC were determined by microscopy. […]
(§5) IFN-alpha cytokine levels (pg/mL) were measured by ELISA (human IFN-α, pan specific, Mabtech, Cincinnati, Ohio). IFN-gamma and TNF-alpha levels (pg/mL) were measured by multiplex bead assay (magnetic beads, R & D Systems Minneapolis, Minn.) according to the manufacturer's instructions.
(§6) Specifically, the minimum effective concentration of each compound (micromolar) was determined as the lowest concentration of the compound that induced a measured cytokine response at a level ([…]) that was at least 2× greater than that observed with the negative control wells.

[2] = tested on: TNF-alpha induction in human peripheral blood mononuclear cells (PBMC); assay: Cytokine induction in human cells (PBMC): TNF-alpha by multiplex bead assay
Experimental: as §1, §2, §3, §4, §5, §6

[3] = tested on: IFN-alpha induction in human peripheral blood mononuclear cells (PBMC); assay: Cytokine induction in human cells (PBMC): IFN-alpha by ELISA
Experimental: as §1, §2, §3, §4, §5, §6

SMILES: CCCCCCCCCC(=O)NCCC[C@@H](COCC)n1cnc2c(N)nc3ccccc3c21 [Example 3, N-[(4S)-4-(4-aminoimidazo[4,5-c]quinolin-1-yl)-5-ethoxy-pentyl]decanamide]
- MEC to Induce Cytokine IFN-gamma [1]: 0.04 µM
- MEC to Induce Cytokine TNF-alpha [2]: ≤0.01 µM
- MEC to Induce Cytokine IFN-alpha [3]: ≤0.01 µM

SMILES: CCCCCCCCCCCCCC(=O)NCCC[C@@H](COCC)n1cnc2c(N)nc3ccccc3c21 [Example 2, N-[(4S)-4-(4-aminoimidazo[4,5-c]quinolin-1-yl)-5-ethoxy-pentyl]tetradecanamide]
- MEC to Induce Cytokine IFN-gamma [1]: 0.04 µM
- MEC to Induce Cytokine TNF-alpha [2]: ≤0.01 µM
- MEC to Induce Cytokine IFN-alpha [3]: ≤0.01 µM

SMILES: CCCCCCCCCCCCCCCCCC(=O)NCCC[C@@H](COCC)n1cnc2c(N)nc3ccccc3c21 [Example 1, N-[(4S)-4-(4-aminoimidazo[4,5-c]quinolin-1-yl)-5-ethoxy-pentyl]octadecanamide]
- MEC to Induce Cytokine IFN-gamma [1]: 1.1 µM
- MEC to Induce Cytokine TNF-alpha [2]: ≤0.01 µM
- MEC to Induce Cytokine IFN-alpha [3]: ≤0.01 µM
